According to patent US11072806B2, “Gadusol production” (Oregon State University, priority 2018, dated 2021):
Like-named read-outs stand apart in the source and are kept apart here.

Experiments:
[1] = in vitro; cited from earlier work
[2] = system: wild-type RAD1 strain (S288c); experiment: UVB irradiation of wild-type (RAD1) yeast strain suspended in gadusol-containing supernatant; assay type: cell-based, S. cerevisiae; conditions: higher doses of UVB; cells in 9-fold concentrated supernatant
From the text: (§1) While it would be possible to harvest gadusol from naturally occurring sources, this would not be economical for producing the quantities of gadusol needed for commercially relevant sunscreen products. To overcome this and other problems, the inventors have developed methods and compositions that allow for the high efficiency production of gadusol in microorganism host cells, such as yeast. Expressing the biosynthetic genes for gadusol in microorganisms, such as yeast, provides an opportunity to leverage in-depth knowledge of yeast biochemistry to generate a sustainable process. […] The mutant was cultured in YNB+2% glucose supplemented with leucine and lysine at 30° C. for 2 days. […] In 20 ml cultures (n=3), the recombinant yeast culture produced approximately 20 mg/I of gadusol after 5 days (FIG. 34). […] Large-scale production allows for the use of gadusol in pharmaceuticals, formulations, cosmetics or dietary formulations and products. By way of example, formulations may include pills/capsules, creams, lotions, or the like. In embodiments, the present disclosure provides for a synthetic gadusol having UV-protective activity. […] Cells were then irradiated with UVB and spotted in 3 μl aliquots (n=4) onto YEPD plates which were incubated at 30° C. for 24 h. […]

rad1Δ yeast mutant = experiment: UVB irradiation of UVB-sensitive rad1Δ yeast mutant suspended in gadusol-containing supernatant; assay type: cell-based, S. cerevisiae; conditions: cells at 10^7 cells/mL in 9-fold concentrated supernatant, UVB (302 nm), spotted on YEPD, 24 h at 30° C.
From the text: as §1

[3] = cited from earlier work; for λmax: enol form at lower pH, enolate form at neutral and basic pH
[4] = Arbeloa et al. 2011, at respective absorbance maxima

| Compound | antioxidant activity [1] | UVB tolerance of wild-type (RAD1) strain [2] | UVB sensitivity of rad1Δ yeast mutant (rad1Δ yeast mutant) | extinction coefficient [3, 4] | λmax ([3]; Plack et al. 1981) [nm] | extinction coefficient ([3]; pH 7 in 50 mM phosphate, Plack et al. 1981) | quantum yield of photodecomposition relative to gadusol ([3]; Arbeloa et al. 2011) [times] | photostability ([3]; compared to gadusol) |
| --- | --- | --- | --- | --- | --- | --- | --- | --- |
| COC1=C(O)CC(O)(CO)C(O)C1=O (stereo not shown) [gadusol, 3,5,6-trihydroxy-5-hydroxymethyl-2-methoxycyclohex-2-en-1-one] | exhibit antioxidant activity in vitro | increases UVB tolerance | suppresses the UVB sensitivity | 12,400 M^−1 cm^−1 | 269 | 21,800 M^−1 cm^−1 |  |  |
| COC1=C(O)CC(O)(CO)C(O)C1=O (stereo not shown) [gadusolate] |  |  |  | 21,800 M^−1 cm^−1 | 296 |  | 260 | more photostable |
